Test results published in US20230210864A1, “AGENT FOR PROMOTING CORNEAL ENDOTHELIAL CELL ADHESION” (Senju Pharmaceutical Co., Ltd., priority 2007, published 2023).

How the values were obtained:
[1] = system: rabbit corneal endothelial cells; test: Culture of rabbit corneal endothelial cells with Y-27632, cells counted by MTS assay; type: cell-based; conditions: primary culture, Y-27632 10 μM
Protocol: From a rabbit corneal tissue isolated immediately after euthanasia, Descemet's membrane with corneal endothelial cells attached thereto was separated. The Descemet's membrane was incubated together with Dispase II (1.2 U/ml, Roche Applied Science) under the conditions of 37° C., 5% CO2 for 45 min, and the corneal endothelial cells were mechanically separated by a pipetting operation. The separated corneal endothelial cells were centrifuged, the cells of a ROCK inhibitor(+) group were stirred in a medium for corneal endothelium added with Y-27632 (10 μM) and the cells of a ROCK inhibitor(−) group were stirred in a medium for corneal endothelium without addition of Y-27632, to the same concentration, and the cells were seeded on a 96 well plate at a density of about 2000 cells per well. As a medium for corneal endothelium, a culture medium (DMEM, Gibco Invitrogen) added with 1% fetal bovine serum and […] bFGF (Gibco Invitrogen) was used. The plate was pre-treated with an FNC coating mix (Athena ES) for 10 min. […] From day 1 to day 3 after the start of the culture, the cells were counted every 24 hr by MTS ([3-(4,5-dimethylthiazol-2-yl)-5-(3-carboxymethoxyphenyl)-2-(4-sulfophenyl)-2H-tetrazolium]) assay using CellTiter 96 (registered trade mark) AQueous One Solution Cell Proliferation (Promega) (FIG. 2).

[2] = system: monkey corneal endothelial cells; test: Primary culture of monkey corneal endothelial cells, toluidine blue staining, total area of cultured cells (Image J); type: cell-based, Macaca fascicularis; conditions: Y-27632 10 μM, day 10
Protocol: From the corneal tissue isolated from Macaca fascicularis euthanized, Descemet's membrane with corneal endothelial cells attached thereto was separated. In the same manner as in Example 2, for the ROCK inhibitor(+) group, the Descemet's membrane was placed in a medium for corneal endothelium added with Y-27632 (10 μM) and incubated under the conditions of 37° C., 5% CO2 for 10 min. For the ROCK inhibitor(−) group, the membrane was placed in a medium for corneal endothelium without addition of Y-27632 and incubated for 10 min under the same conditions. As the medium for corneal endothelium, the same cell culture medium as in Example 1 was used. The Descemet's membrane after the incubation was incubated together with Dispase II (1.2 U/ml, Roche Applied Science) under the conditions of 37° C., 5% CO2 for 45 min, and the corneal endothelial cells were mechanically separated by a pipetting operation. The separated corneal endothelial cells were centrifuged and stirred in the media for corneal endothelium with Y-27632(+) and Y-27632(−) to the same concentration, and the cells were seeded on a 96 well plate at a density of about 2000 cells per well. […] The total area of the cells was measured using Image J (National Institutes of Health) and analyzed (FIG. 6C).

[3] = system: monkey corneal endothelial cells; test: Optimal concentration of Y-27632 for monkey corneal endothelial cells, viable cell count by CellTiter-Glo; type: cell-based, Macaca fascicularis
Protocol: Monkey corneal endothelial cells (primary culture) collected in the same manner as in Example 2 were placed in media for corneal endothelium each added with Y-27632 at 1, 10, 33 and 100 μM and a medium for corneal endothelium without addition of Y-27632, and stirred to the same concentration, and the cells were seeded on a 96 well plate at a density of about 2000 cells per well. At 24 hr from the start of the culture, viable cells were counted using CellTiter-Glo (registered trade mark, Promega) (FIG. 7).

[4] = system: monkey corneal endothelial cells; test: Primary culture of monkey corneal endothelial cells with Y-27632, phase contrast observation; type: cell-based, Macaca fascicularis; conditions: Y-27632 10 μM
Protocol: From the corneal tissue isolated from Macaca fascicularis euthanized for other purpose, Descemet's membrane with corneal endothelial cells attached thereto was separated. For the ROCK inhibitor(+) group, the Descemet's membrane was placed in a medium for corneal endothelium added with Y-27632 (10 μM) and incubated under the conditions of 37° C., 5% CO2 for 10 min. For the ROCK inhibitor(−) group, the membrane was placed in a medium for corneal endothelium without addition of Y-27632 and incubated for 10 min under the same conditions. As the medium for corneal endothelium, the same cell culture medium as in Example 1 was used. The Descemet's membrane after the incubation was incubated together with Dispase II (1.2 U/ml, Roche Applied Science) under the conditions of 37° C., 5% CO2 for 45 min, and the corneal endothelial cells were mechanically separated by a pipetting operation. The separated corneal endothelial cells were centrifuged and stirred in the media for corneal endothelium with Y-27632(+) and Y-27632(−) to the same concentration, and the cells were seeded on a 12 well plate at a density of about 20000 cells per well. The plate was pre-treated with an FNC coating mix (Athena ES) for 10 min. […]

CC(N)[C@H]1CC[C@H](C(=O)Nc2ccncc2)CC1 (single isomer, unassigned; (+)) [Y-27632, (+)-trans-4-(1-aminoethyl)-1-(4-pyridylcarbamoyl)cyclohexane]
cell adhesion in 24 hr (day 1) after cell seeding as compared to the ROCK inhibitor(−) group [1]: about 2.8 fold
cell growth at day 3 when the cells reached confluent, difference from ROCK inhibitor(−) group ([1]; day 3): a significant difference was not found
total area of cultured cells as compared to the ROCK inhibitor(−) [2]: about 1.6 fold
most effective concentration for monkey corneal endothelial cells ([3]; of 1, 10, 33 and 100 μM, 24 hr): 10 µM
number of cells that adhered onto the plate at 24 hr, compared to medium without Y-27632 and media with other concentrations ([3]; primary culture, 10 μM Y-27632 (1, 10, 33 and 100 μM tested)): significantly high
number of days before reaching confluent ([4]; 7 for ROCK inhibitor(−)): 3 days
cells adhered onto the plate as compared to ROCK inhibitor(−) ([4]; after 24 hr from the start of the culture): apparently more cells were adhered onto the plate
